Publication PMC11601558, “SLC6A19 inhibition facilitates urinary neutral amino acid excretion and lowers plasma phenylalanine” (JCI Insight, 2024)
“And” between values parts separate entries of the source, which are not always exact repeats. Equal values may be shown once.

What was measured:
Pah^enu2 mice = test: Plasma Phe in Pah^enu2 mice on defined amino acid diets (0.75%, 0.45%, 0.225% Phe); assay type: in vivo, mouse; design: plasma Phe: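 plasma Phe concentration in µM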; conditions: for mean plasma Phe lower than vehicle / plasma Phe, mean ± SD: 200 mg/kg, 3 hours after dose; for plasma Phe: Fig 3e, Pah^enu2 mice on defined diet, individual animals
Protocol: To modulate baseline plasma Phe levels, 8–13-week-old male Pah^enu2 mice were maintained on isocaloric amino acid–defined diets with either 7.5 g/kg (0.75%, Teklad T.2018.15), 4.5 g/kg (0.45%, Teklad custom formulation), or 2.25 g/kg (0.225%, Teklad custom formulation) L-Phe for 2 weeks before a single dose administration of 200 mg/kg JN-170 or vehicle. Animals had unrestricted access to food and water throughout the study. Serial plasma samples were taken predose as well as 1, 3, 8, 24 and 48 hours after the dose. For all studies, mice were dosed at 7:00 a.m. ± 30 minutes to synchronize with circadian rhythm.
Plasma sample analyses were carried out by liquid chromatography tandem mass spectrometry (LC-MS/MS). Plasma samples were mixed 1:1 with carbamazepine or ^13C6-Phe as internal standards for JN-170 and Phe, respectively. Plasma proteins were precipitated by adding 4 volumes of acetonitrile (ACN) and 0.1% formic acid (FA) followed by centrifugation for 5 minutes at 2,100g. Supernatants were diluted 1:1 in ACN and 0.1% FA. For JN-170, a Waters HSS T3 reversed phase column was used for separation using a binary gradient of 0.1% FA in water (mobile phase A) to 0.1% in ACN (mobile phase B). At a flow rate of 0.8 mL/min, the mobile phase gradient increased from an initial 25% phase B to 95% phase B over 30 seconds. After, 1.5 minutes, the gradient was returned to 25% mobile phase B. For detection of Phe, an Acquity UPLC ethylene bridged hybrid (BEH) amide column was used, with a binary gradient of 10 mM ammonium acetate in 95:5:1 H2O:ACN:FA (mobile phase A) to 10 mM ammonium acetate in 95:5:1 ACN:H2O:FA (mobile phase B). At a flow rate of 0.5 mL/min, the mobile phase gradient changed from an initial 100% phase B to 50% phase B over 2.1 minutes. It was returned to 100% phase B after 4 minutes. Analytes were detected using a Sciex API-5500 in multiple reaction monitoring mode using an electrospray ionization source in the positive ion mode with the following ion transitions: m/z 435.2/84.1 (JN-170), 237.1/194.1 (carbamazepine), 166.1/120.1 (Phe), 172.2/126.2 for (^13C6-Phe). Analyte concentrations were calculated with a 1/×^2 linear regression over a concentration range of 1 or 2 to 5,000 ng/mL for JN-170 and 0.05–100 ng/mL for Phe.

human SLC1A5 = system: T1, human SLC1A5; test: SLC1A5 glutamine transport assay; assay type: cell-based; conditions: for SLC1A5 transport (Fig S2 curve point): technical replicates
T1 construct: V5; expressed in transfected cells; host or cells: Flp-In T-Rex 293 cells (Thermo Fisher), tetracycline-induced
Protocol: Supplementary Materials and Methods
Flp-In T-Rex 293 cells (Thermo Fisher) were engineered to induciblyexpress either V5-tagged human SLC1A5, SLC6A8 or SLC7A5 co-expressed with myc-DDK-tagged SLC3A2. Cells expressing SLC 1A5 or SLC6A8 were maintained in either DMEM or DMEM/F12 media supplemented with 10% FBS, 100 U/mL penicillin, 100 μg/mL streptomycin, 200 μg/mL hygromycin, and 10 μg/mL blasticidin. For cells expressing SLC7A5/SLC3A2, the media was additionally supplemented with 300 μg/mL geneticin. All cell lines were maintained at 37°C and 5% CO2. For transport experiments, all cell lines were plated in poly-D-lysine-coated 96-well plates at a density of 35,000 cells/well. One day after plating, expression of SLC1A5, SLC6A8 or SLC7A5 was induced by adding tetracycline at a concentration of 1 μg/mL. Cells were induced for 24 h prior to transport assays.
SLC1A5 glutamine transport assay
Following a 24 h induction with tetracycline, cells were washed with LCIS before JNT -517 was added in 8-point concentration-response diluted in live cell imaging solution. D -serine was used as a positive control (32)at aconcentration of 40 mM and 0.5% DMSO was used as a negative control. Cells were incubated for 20 min at room temperature and then placed on ice for an additional 5 minutes. Then, a mixture of unlabeled L-glutamine (Millipore Sigma) spiked with 4.5 μCi/mL 2,3,4- 3H-labeled L-glutamine (American Radiolabeled Chemicals) was added at a final concentration of 100 μM. After a 5 min incubation on ice, cells were washed once with ice - […]
cold LCIS and lysed in scintillation fluid (PerkinElmer). The uptake of radioactive substrate was measured on a Microbeta2 microplate counter (PerkinElmer). […]

## N#Cc1ccc(-c2noc([C@]3(C(F)(F)F)CCN(C(=O)NCCC4(N)CC4)C3)n2)cc1 [JN-170]
Pah^enu2 mice; 0.225% Phe diet
  mean plasma Phe lower than vehicle: 47%
  plasma Phe, mean ± SD: 309 ± 108 µM
Pah^enu2 mice; 0.45% Phe diet
  mean plasma Phe lower than vehicle: 61%
  plasma Phe, mean ± SD: 416 ± 117 µM
Pah^enu2 mice; 0.75% Phe diet
  mean plasma Phe lower than vehicle: 59%
  plasma Phe, mean ± SD: 621 ± 141 µM
Pah^enu2 mice; time 0 h
  plasma Phe: 2027 and 2042 and 2474 and 2301 and 2768 and 2728 and 2723 and 1767 and 1191 and 962 and 924 and 848 and 1013 and 971 and 1061 and 1569 and 1364 and 1314
Pah^enu2 mice; time 1 h
  plasma Phe: 884 and 990 and 803 and 886 and 865 and 914 and 675 and 1252 and 589 and 1292 and 1010 and 927 and 813 and 907 and 727 and 787 and 898 and 1296 and 942 and 978
Pah^enu2 mice; time 3 h
  plasma Phe: 973 and 455 and 892 and 697 and 736 and 559 and 671 and 509 and 763 and 495 and 635 and 669 and 535 and 654 and 529 and 586 and 485 and 516 and 441 and 769 and 511 and 574
Pah^enu2 mice; time 8 h
  plasma Phe: 938 and 505 and 720 and 502 and 600 and 578 and 665 and 577 and 945 and 657 and 745 and 672 and 637 and 621 and 611 and 518 and 376 and 392 and 476 (2×) and 629
Pah^enu2 mice; time 24 h
  plasma Phe: 1767 and 1553 and 1370 and 1402 and 1592 and 597 and 1045 and 1827 and 1448 and 1043 and 988 and 1535 and 1388 and 1336 and 1203 and 1339 and 1578 and 871 and 1063

## NC(=O)N1CCC[C@@H](N(C(=O)NCc2ccc(OC(F)(F)F)cc2F)C2CC2)C1 [JNT-517]
Human SLC1A5; 0.0160037 uM
  SLC1A5 transport (Fig S2 curve point): 77.6 and 89.2
Human SLC1A5; 0.048011 uM
  SLC1A5 transport (Fig S2 curve point): 105 and 120
Human SLC1A5; 0.144033 uM
  SLC1A5 transport (Fig S2 curve point): 112 and 122
Human SLC1A5; 0.432099 uM
  SLC1A5 transport (Fig S2 curve point): 125 and 131
Human SLC1A5; 1.2963 uM
  SLC1A5 transport (Fig S2 curve point): 122 and 116
Human SLC1A5; 3.88889 uM
  SLC1A5 transport (Fig S2 curve point): 125 and 121
Human SLC1A5; 11.6667 uM
  SLC1A5 transport (Fig S2 curve point): 117 and 115
Human SLC1A5; 35 uM
  SLC1A5 transport (Fig S2 curve point): 110 and 117
Human SLC1A5; concentrations up to 35 μM
  inhibition of SLC1A5: did not inhibit
